Measured values from patent publication EP4582423A1, “NOVEL TRICYCLIC DERIVATIVE COMPOUND AND USES THEREOF” (Hanmi Pharm. Co., Ltd., priority 2022, dated 2024).

test system: HCT116 MTAP-/- cells; assay: Cell growth inhibition test (SRB staining); format: cell-based; conditions: Homo sapiens, HCT-116, 144 h, read-out: HCT116 MTAP-/- cell growth inhibition (GI50, nM)
Protocol: The synthetic compounds above were tested for cell growth inhibition against HCT116 cells.
HCT116 MTAP-/- (homozygous knockout of MTAP gene in HCT116 MTAP-WT cells by CRISPER/Cas9 method) cells were maintained in RPMI1640 medium containing 10 % FBS and 1 % penicillin-streptomycin. Approximately 5×10^2 cells were seeded in a 96-well plate and treated with a test compound. (0.64 nM - 2,000 nM, 6 dose points for HCT116 MTAP-/- cells for 5x and 6 days) cell growth was measured by SRB staining and absorbance was detected at 540 nm on a Synergy™ NEO microplate reader. The 50 % growth inhibition value (GI50) of the cell line was calculated using GraphPad Prism V9 software.

SMILES | GI50
Cn1c(Cc2ccccc2)nc2c(=O)n(-c3ccccc3)c3cc(Cl)ccc3c21 [Compound 1, 2-benzyl-7-chloro-1-methyl-5-phenyl-1,5-dihydro-4H-imidazo[4,5-c]quinolin-4-one] | 100 to 500 nM

same assay, conditions: Homo sapiens, HCT-116, 144 h; HCT116 MTAP-/- cells, 0.64 nM - 2,000 nM, 6 dose points, 6 days, SRB staining, absorbance at 540 nm; read-out: HCT116 MTAP-/- cell growth inhibition (GI50)

SMILES | GI50
CCc1ccc2c3c(nc(Cc4ccc(OC(F)F)cc4)n3C)c(=O)n(-c3cccnc3C)c2c1 [Compound 54, 2-(4-(difluoromethoxy)benzyl)-7-ethyl-1-methyl-5-(2-methylpyridin-3-yl)-1,5-dihydro-4H-imidazo[4,5-c]quinolin-4-one] | < 100 nM
COc1ccc(Cc2nc3c(=O)n(-c4ccccc4)c4cc(Cl)ccc4c3n2C)cc1OC [Compound 8, 7-chloro-2-(3,4-dimethoxybenzyl)-1-methyl-5-phenyl-1,5-dihydro-4H-imidazo[4,5-c]quinolin-4-one] | 100 to 500 nM
Cc1ncccc1-n1c(=O)c2nc(Cc3ccc(F)cc3)n(C)c2c2ccc(Cl)cc21 [Compound 28, 7-chloro-2-(4-fluorobenzyl)-1-methyl-5-(2-methylpyridin-3-yl)-1,5-dihydro-4H-imidazo[4,5-c]quinolin-4-one] | < 100 nM
COc1ccc(Cc2nc3c(=O)n(-c4ccccc4)c4cc(Cl)ccc4c3n2C)cc1 [Compound 2, 7-chloro-2-(4-methoxybenzyl)-1-methyl-5-phenyl-1,5-dihydro-4H-imidazo[4,5-c]quinolin-4-one] | < 100 nM
COc1ccc2c3c(nc(Cc4ccc(OC(F)F)cc4)n3C)c(=O)n(-c3cccnc3C)c2n1 [Compound 63, 2-(4-(difluoromethoxy)benzyl)-7-methoxy-1-methyl-5-(2-methylpyridin-3-yl)-1,5-dihydro-4H-imidazo[4,5-c][1,8]naphthyridin-4-one] | < 100 nM
COc1cccc(Cc2nc3c(=O)n(-c4ccccc4)c4cc(Cl)ccc4c3n2C)c1 [Compound 4, 7-chloro-2-(3-methoxybenzyl)-1-methyl-5-phenyl-1,5-dihydro-4H-imidazo[4,5-c]quinolin-4-one] | < 100 nM
COc1ccc(Cc2nc3c(=O)n(-c4ccc(OC(F)F)cc4)c4nc(C(F)(F)F)ccc4c3n2C)cc1 [Compound 56, 5-(4-(Difluoromethoxy)phenyl)-2-(4-methoxybenzyl)-1-methyl-7-(trifluoromethyl)-1,5-dihydro-4H-imidazo[4,5-c][1,8]naphthyridin-4-one] | > 1000 nM
COc1ccc(Cc2nc3c(=O)n(-c4cccnc4C)c4ccccc4c3n2C)cc1 [Compound 22, 2-(4-methoxybenzyl)-1-methyl-5-(2-methylpyridin-3-yl)-1,5-dihydro-4H-imidazo[4,5-c]quinolin-4-one] | 500 to 1000 nM
CCOc1ncc2c3c(nc(Cc4ccc(OC)cc4)n3C)c(=O)n(-c3cccnc3C)c2n1 [Compound 62, 7-ethoxy-2-(4-methoxybenzyl)-1-methyl-5-(2-methylpyridin-3-yl)-1,5-dihydro-4H-imidazo[4',5':4,5]pyrido[2,3-d]pyrimidin-4-one] | > 1000 nM
C#Cc1ccc2c3c(nc(Cc4ccc(OC)cc4)n3C)c(=O)n(-c3cccnc3C)c2c1 [Compound 47, 7-ethynyl-2-(4-methoxybenzyl)-1-methyl-5-(2-methylpyridin-3-yl)-1,5-dihydro-4H-imidazo[4,5-c]quinolin-4-one] | < 100 nM
COc1ccc2c3c(nc(Cc4ccc(OC(F)F)cc4)n3C)c(=O)n(-c3cccnc3C)c2c1 [Compound 55, 2-(4-(Difluoromethoxy)benzyl)-7-methoxy-1-methyl-5-(2-methylpyridin-3-yl)-1,5-dihydro-4H-imidazo[4,5-c]quinolin-4-one] | < 100 nM
COc1ccc(Sc2nc3c(=O)n(-c4ccc(OC)cc4)c4cc(Cl)ccc4c3n2C)cc1 [Compound 34, 7-chloro-5-(4-methoxyphenyl)-2-((4-methoxyphenyl)thio)-1-methyl-1,5-dihydro-4H-imidazo[4,5-c]quinolin-4-one] | > 1000 nM

Further lines, results first:

GI50 | SMILES
< 100 nM | Cc1ncccc1-n1c(=O)c2nc(Cc3ccc(OC(F)F)cc3)n(C)c2c2ccc(C3CC3)nc21 [Compound 66, 7-cyclopropyl-2-(4-(difluoromethoxy)benzyl)-1-methyl-5-(2-methylpyridin-3-yl)-1,5-dihydro-4H-imidazo[4,5-c][1,8]naphthyridin-4-one]
100 to 500 nM | COc1ccc(Cc2nc3c(=O)n(-c4ccccc4C(F)(F)F)c4cc(Cl)ccc4c3n2C)cc1 [Compound 25, 7-chloro-2-(4-methoxybenzyl)-1-methyl-5-(2-(trifluoromethyl)phenyl)-1,5-dihydro-4H-imidazo[4,5-c]quinolin-4-one]
> 1000 nM | COc1ccc(Cc2nc3c(=O)n(-c4cccnc4C)c4cc(N5CCCC5)ccc4c3n2C)cc1 [Compound 50, 2-(4-methoxybenzyl)-1-methyl-5-(2-methylpyridin-3-yl)-7-(pyrrolidin-1-yl)-1,5-dihydro-4H-imidazo[4,5-c]quinolin-4-one]
< 100 nM | Cc1ncccc1-n1c(=O)c2nc(Sc3ccc4c(c3)OCO4)n(C)c2c2ccc(Cl)cc21 [Compound 38, 2-(benzo[d][1,3]dioxol-5-ylthio)-7-chloro-1-methyl-5-(2-methylpyridin-3-yl)-1,5-dihydro-4H-imidazo[4,5-c]quinolin-4-one]
100 to 500 nM | COc1ccccc1Cc1nc2c(=O)n(-c3ccccc3)c3cc(Cl)ccc3c2n1C [Compound 5, 7-chloro-2-(2-methoxybenzyl)-1-methyl-5-phenyl-1,5-dihydro-4H-imidazo[4,5-c]quinolin-4-one]
< 100 nM | COc1ccc(Cc2nc3c(=O)n(-c4cccnc4C)c4cc(OC)ccc4c3n2C)cc1 [Compound 51, 7-methoxy-2-(4-methoxybenzyl)-1-methyl-5-(2-methylpyridin-3-yl)-1,5-dihydro-4H-imidazo[4,5-c]quinolin-4-one]
> 1000 nM | COc1ccc(Cc2nc3c(=O)n(-c4ccc(F)cc4)c4cc(Cl)ccc4c3n2C)cc1 [Compound 32, 7-chloro-5-(4-fluorophenyl)-2-(4-methoxybenzyl)-1-methyl-1,5-dihydro-4H-imidazo[4,5-c]quinolin-4-one]
< 100 nM | Cc1ncccc1-n1c(=O)c2nc(Sc3ccc(F)cc3F)n(C)c2c2ccc(Cl)cc21 [Compound 39, 7-chloro-2-((2,4-difluorophenyl)thio)-1-methyl-5-(2-methylpyridin-3-yl)-1,5-dihydro-4H-imidazo[4,5-c]quinolin-4-one]
100 to 500 nM | Cn1c(Cc2ccc(Cl)cc2)nc2c(=O)n(-c3ccccc3)c3cc(Cl)ccc3c21 [Compound 6, 7-chloro-2-(4-chlorobenzyl)-1-methyl-5-phenyl-1,5-dihydro-4H-imidazo[4,5-c]quinolin-4-one]
100 to 500 nM | COc1ccc(Cc2nc3c(=O)n(-c4cccnc4C)c4cc(C)ccc4c3n2C)cc1 [Compound 49, 2-(4-methoxybenzyl)-1,7-dimethyl-5-(2-methylpyridin-3-yl)-1,5-dihydro-4H-imidazo[4,5-c]quinolin-4-one]
> 1000 nM | COc1ccc(N(C)c2nc3c(=O)n(-c4ccccc4)c4cc(Cl)ccc4c3n2C)cc1 [Compound 41, 7-chloro-2-((4-methoxyphenyl)(methyl)amino)-1-methyl-5-phenyl-1,5-dihydro-4H-imidazo[4,5-c]quinolin-4-one]
< 100 nM | CCc1ccc2c3c(nc(Cc4ccc(OC(F)F)cc4)n3C)c(=O)n(-c3cccnc3C)c2n1 [Compound 65, 2-(4-(difluoromethoxy)benzyl)-7-ethyl-1-methyl-5-(2-methylpyridin-3-yl)-1,5-dihydro-4H-imidazo[4,5-c][1,8]naphthyridin-4-one]
